Measured values published in PMC3481155, “AhR activation underlies the CYP1A autoinduction by A-998679 in rats” (Frontiers in Genetics, 2012).

What was measured:
CYP1A1 = CYP1A1 mRNA induction in primary human hepatocytes; type: cell-based; conditions: 24 h, dose-dependent
Experimental: Rat hepatocytes were isolated in a perfusion procedure as described previously (Elliget and Kolaja, [1983]; Waring et al., [2001]). The beagle dog hepatocytes were isolated in the same manner, except for adjustment of flow rate and buffer volume to scale to liver size. Cells were plated at a seeding density of 1.0 × 10^6 cells per well on 6-well, collagen-type I coated plates (BD Biosciences, Bedford, MA) in hepatocyte plating medium (Celsis, Baltimore, MD). Cells were allowed to attach for 24 h in a 37°C humidified incubator with a 5% CO2 atmosphere and were dosed for 24 h (rat) or 48 h (dog) with vehicle control [0.1% DMSO (v/v)] or 10 μM A-998679 in fresh treatment media (Celsis hepatocyte incubation media) every 24 h. After the last incubation, cells were lysed in 1 ml of Qiazol (Qiagen) and stored at −80°C until RNA isolation. Cryopreserved human hepatocytes (donor designation Hu4198; Invitrogen Life Technologies, Carlsbad, CA) were thawed and plated according to the manufacturer's protocol and allowed to incubate for 24 h. […]
RNA samples were diluted with RNase-free molecular biology grade water to a concentration of 20 ng/μl total RNA. […] Results were analyzed by calculating the fold change of CYP1A1 and/or CYP1A2 mRNA levels normalized to 28S rRNA (ΔΔ Ct) in compound treated cells or tissues compared to vehicle levels. […]

rat Cyp1a1 = molecular target: T1, rat Cyp1a1 (Rattus norvegicus, UniProt P00185); assay: Recombinant rat Cyp phenotype profiling, 1A1; type: in vitro ADME; conditions: recombinant rat Cyp 1A1 (200 pmol/ml), 60 min
T1 construct: purchased BD Gentest; host or cells: baculovirus infected insect cells
Experimental: (§1) Identification of the drug metabolizing enzymes (DMEs) of A-998679 was studied in cDNA expressed recombinant enzymes prepared from baculovirus infected insect cells over-expressing rat Cyp isoforms (BD Gentest, Woburn, MA) as listed in Table 2. Incubations were conducted in duplicate using Supersomes. The incubation mixture contained 100 pmol/ml of enzymes, except for Cyp1a1 (200 pmol/ml), 0.1 or 0.21 μM of [^3H]A-998679 in 100 mM phosphate buffer (pH 7.4). Reactions were initiated with the addition of NADPH at a final concentration of 1 mM and incubated at 37°C for 60 min. At the end of the incubation period, the incubations were terminated by the addition of acetonitrile/ethanol (50/50, v/v) solution. Insect control samples lacking expressed enzyme were used as negative control. The degree of metabolism of A-998679 was assessed by percent of parent remaining using the radio-HPLC method described below.
(§2) Radiolabeled components from the above assays were profiled following separation by HPLC with on line radioflow detector. The system consisted of an Agilent 1100 Series quaternary pump and autosampler connected to a Packard 500TR flow scintillation detector. The data were processed using the Radiomatic™ Flo-one® software v3.65. The scintillant (Perkin Elmer FLO-SCINT™ III) flow was maintained at 3 ml/min. […]

rat Cyp 3A1 = molecular target: T2, rat Cyp 3A1 (Rattus norvegicus, UniProt P04800); assay: Recombinant rat Cyp phenotype profiling, 3A1; type: in vitro ADME; conditions: 60 min
T2 construct: purchased BD Gentest; host or cells: baculovirus infected insect cells
Experimental: as §1, §2

rat Cyp 3A2 = molecular target: T3, rat Cyp 3A2 (Rattus norvegicus, UniProt P05183); assay: Recombinant rat Cyp phenotype profiling, 3A2; type: in vitro ADME; conditions: 60 min
T3 construct: purchased BD Gentest; host or cells: baculovirus infected insect cells
Experimental: as §1, §2

T1 sequence (P00185 whole entry): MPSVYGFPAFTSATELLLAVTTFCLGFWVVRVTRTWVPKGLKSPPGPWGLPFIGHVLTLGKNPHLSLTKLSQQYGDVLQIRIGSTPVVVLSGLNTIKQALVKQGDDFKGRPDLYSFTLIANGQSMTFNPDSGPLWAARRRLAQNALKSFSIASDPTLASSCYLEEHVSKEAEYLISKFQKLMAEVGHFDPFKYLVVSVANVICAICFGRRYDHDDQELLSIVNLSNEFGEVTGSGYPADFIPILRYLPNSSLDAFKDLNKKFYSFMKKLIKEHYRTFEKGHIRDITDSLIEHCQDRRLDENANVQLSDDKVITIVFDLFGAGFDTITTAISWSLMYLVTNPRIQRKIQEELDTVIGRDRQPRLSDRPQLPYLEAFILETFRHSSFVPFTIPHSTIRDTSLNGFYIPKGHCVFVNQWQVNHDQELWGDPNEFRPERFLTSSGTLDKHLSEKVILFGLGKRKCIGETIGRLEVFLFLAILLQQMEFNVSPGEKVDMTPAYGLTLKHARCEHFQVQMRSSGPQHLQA
T3 sequence (P05183 whole entry): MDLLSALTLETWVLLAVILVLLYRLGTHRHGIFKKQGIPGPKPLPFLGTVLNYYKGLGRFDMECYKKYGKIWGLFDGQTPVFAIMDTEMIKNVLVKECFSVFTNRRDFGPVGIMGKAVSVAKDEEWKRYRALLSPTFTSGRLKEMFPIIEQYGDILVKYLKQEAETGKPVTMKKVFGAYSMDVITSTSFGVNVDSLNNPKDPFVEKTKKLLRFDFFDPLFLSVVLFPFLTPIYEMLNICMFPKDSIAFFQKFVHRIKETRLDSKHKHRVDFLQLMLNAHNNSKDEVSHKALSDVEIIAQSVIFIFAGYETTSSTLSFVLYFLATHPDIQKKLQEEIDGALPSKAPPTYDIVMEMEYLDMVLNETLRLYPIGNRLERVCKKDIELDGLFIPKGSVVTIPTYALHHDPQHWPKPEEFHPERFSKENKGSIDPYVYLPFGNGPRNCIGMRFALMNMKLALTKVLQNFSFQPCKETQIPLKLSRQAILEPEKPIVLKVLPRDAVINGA
T2 sequence (P04800 whole entry): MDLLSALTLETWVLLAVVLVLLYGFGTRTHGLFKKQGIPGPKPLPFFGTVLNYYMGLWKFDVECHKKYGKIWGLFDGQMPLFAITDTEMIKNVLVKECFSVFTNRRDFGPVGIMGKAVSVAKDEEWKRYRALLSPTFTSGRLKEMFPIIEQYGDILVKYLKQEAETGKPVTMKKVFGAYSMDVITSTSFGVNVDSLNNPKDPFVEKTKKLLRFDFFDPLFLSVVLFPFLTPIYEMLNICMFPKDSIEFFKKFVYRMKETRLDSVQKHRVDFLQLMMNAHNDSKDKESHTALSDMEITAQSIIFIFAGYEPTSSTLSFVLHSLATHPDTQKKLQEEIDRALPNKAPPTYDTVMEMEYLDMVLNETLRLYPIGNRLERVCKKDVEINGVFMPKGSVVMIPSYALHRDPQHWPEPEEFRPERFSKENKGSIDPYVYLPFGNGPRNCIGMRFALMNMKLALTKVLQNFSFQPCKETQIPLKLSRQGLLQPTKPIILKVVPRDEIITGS

N#Cc1cccc(-c2noc(-c3cccnc3)n2)c1 [A-998679, 3-(5-pyridin-3-yl-1,2,4-oxadiazol-3-yl) benzonitrile]
lowest concentration inducing CYP1A1 mRNA (CYP1A1): 3 µM
% parent remaining (rat Cyp1a1; 0.10 μM): 0%
% parent remaining (rat Cyp1a1; 0.21 μM): 0%
% parent remaining (rat Cyp 3A1; recombinant rat Cyp 3A1, 0.10 μM): 93.9%
% parent remaining (rat Cyp 3A1; recombinant rat Cyp 3A1, 0.21 μM): 90.3%
% parent remaining (rat Cyp 3A2; recombinant rat Cyp 3A2, 0.10 μM): 100%
% parent remaining (rat Cyp 3A2; recombinant rat Cyp 3A2, 0.21 μM): 94.2%
